Data reported in publication PMC7352759, “S(+)-(2E)-N-(2-Hydroxypropyl)-3-Phenylprop-2-Enamide (KM-568): A Novel Cinnamamide Derivative with Anticonvulsant Activity in Animal Models of Seizures and Epilepsy” (International Journal of Molecular Sciences, 2020).

Key:
mice [1] = assay: Subcutaneous metrazol seizure threshold test (scMET), mice; type: in vivo; details: for ED50: Mus musculus, 95% confidence interval in parentheses
Protocol: In vivo activity testing was performed at the Epilepsy Branch, National Institute of Neurological Disorders and Stroke, National Institutes of Health (NIH, Bethesda, USA) within the Anticonvulsant Screening Program (ASP) (currently known as the Epilepsy Therapy Screening Program (ETSP)). Pharmacological evaluation was planned and performed in accordance with the Institute of Laboratory Resources polices on the humane care of laboratory animals and approved by the University of Utah’s Institutional Animal Care and Use Committee (IACUC). All testing protocols were previously published as well as they are available on the NIH website. In the tests, albino mice Carworth Farms No.1 (CF-1) (Charles River), C57/Bl6 mice (Charles River), Frings mice (University of Utah) or male rats Sprague–Dawley (Charles River) were used. All animals were housed, fed, and handled in a manner consistent with the recommendations in the National Council Publication, ‘Guide for the Care and Use of Laboratory animals’ [51]. The tested compound was suspended in 0.5% methylcellulose.
The tested compound was administered i.p. or p.o. at certain dose. Then, subcutaneous injection of metrazol (syn. pentetrazol, pentylenepentetrazol) dissolved in 0.9% NaCl at the dose of 85 mg/kg (mice) or 70 mg/kg (rats) was performed to induce seizures. Protection was scored if there was not an observed episode of clonic spasm of at least 5 sec.

[2] = Neurotoxicity (TOX), rotarod test, mice; type: in vivo; details: mouse, in vivo, rotarod, 0.25 h, 95% confidence interval in parentheses
Protocol: (§1) In mice, the neurological deficit was measured by the rotarod test in which a 1 inch diameter knurled plastic rod rotating at 6 rpm was used. Tests were performed at 0.25 h or 0.5 h of intraperitoneal or oral administration of the certain dose of the compounds KM-568. Each mouse was placed on the rod. If the animal was not able to remain on the rod for at least 1 min in each of three trials, the neurotoxicity was scored. In rats, the neurological deficit was measured in behavioral tests and scored when ataxia and loss of placing response and muscle tone were observed. Tests in rats were performed after 0.5 h of intraperitoneal administration or 1.0 h of oral administration of the certain dose of compound KM-568. TD50s were calculated by probit analysis.

mice [3] = assay: Neurotoxicity (TOX), rotarod test, mice; type: in vivo
Protocol: as §1

CF-1 mice = assay: Chemoconvulsant test, picrotoxin; type: in vivo; details: 0.25 h; for Picrotoxin Results (protected/tested animals): i.p.
Protocol: After 0.25 h, the subcutaneous injections of either bicuculine (2.7 mg/kg) or picrotoxin (2.5 mg/kg) were performed. The, animals were placed in isolation cages and observed for 30 min (in a bicuculine assay) or 45 min (in a picrotoxin assay) for the presence or absence of an episode of a clonic seizure.

C57/Bl6 mice = assay: Mesial temporal lobe epilepsy model (MTLE); type: in vivo; details: 114 mg/kg i.p., recording period 20–40 min
Protocol: Adult male C57/Bl6 mice were placed in a stereotactic frame, injected with kainate (1 nmol/100 nL) and implanted with 1 bipolar electrode in the dorsal hippocampus. The animals were then allowed to recover for four weeks. Four animals chosen for tests were intraperitoneally injected with KM-568 at 114 mg/kg (ED50 obtained in 6-Hz 44 mA test). Digital EEG recordings were performed on freely moving animals for 20 min pre-injection (reference period) and from 20 to 40 min after injection (10 min before and 10 min after peak time of effect in a 6-Hz 44 mA test). Animals are used as their own controls. In the testing periods, spontaneous recurrent hippocampal paroxysmal discharges (HPD) were counted.

[4] = test system: rat cerebral cortex AMPA receptor; assay: AMPA receptor radioligand binding ([3H]AMPA); details: 10 µM; agonist radioligand
Protocol: In order to identify molecular mechanism of action, KM-568 was tested at 10 µM in three radioligand binding assays: rat cerebral cortex GABA receptor non-selective agonist radioligand, AMPA (α-amino-3-hydroxy-5-methyl-4-isoxazolepropionic acid) receptor agonist radioligand, and NMDA (N-methyl-D-aspartate) receptor antagonist radioligand as well as one functional assay involving a human recombinant TRPV1 receptor expressed in CHO cells (agonist and antagonist effects).
Tests were performed by Eurofins Cerep (Eurofins CEREP SA, Celle-Lévescault, France) as a commercial service. In radioligand assays, rat cerebral cortex GABA receptor as well as rat cerebral cortex AMPA (α-amino-3-hydroxy-5-methyl-4-isoxazolepropionic acid) and NMDA (N-methyl-D-aspartate) receptors with 10 nM [^3H]GABA, 8 nM [^3H]AMPA, and 5 nM [^3H]CGP39653, respectively, were used. The results were detected by means of scintillation counting. In functional assays, a human recombinant TRPV1 receptor expressed in Chinese hamster ovary (CHO) cells with 1 µM capsaicin or 30 nM capsazepine were used. Fluorimetry was used as a detection method.

[5] = In vitro metabolism, mouse liver microsomes; type: in vitro ADME
Protocol: Stock solution of KM-568 was prepared in methanol. Mouse liver microsomes (Sigma–Aldrich, Darmstadt, Germany) were carefully thawed on ice before the experiment. A compound tested at concentration 20 μM was preincubated with mouse liver microsomes (0.4 mg/mL) in 100 mM potassium-phosphate buffer (pH 7.4) for 15 min at 37 °C. The biotransformation reaction was started with the addition of NADPH-regenerating system (NADP^+, glucose-6-phosphate, 0.7 U/mL glucose-6-phosphate dehydrogenase in 100 mM potassium-phosphate buffer) (Sigma–Aldrich, Darmstadt, Germany) and the mixture was incubated at 37 °C. Experiments were carried out 30 and 60 min at 37 °C, in duplicates. Negative control without NADPH-regenerating system was also conducted. Biotransformation was stopped by adding cooled 70% perchloric acid. Next, an internal standard (pentoxifylline) was added and samples were centrifuged at 9000 rpm for 10 min at 4 °C. The supernatant was analyzed by means of LC/MS. In vitro half time (t1/2) was established from the slope of the compound depletion curve. Intrinsic clearance (Clint) was obtained from the equation Clint = (volume of incubation [µl]/protein in the incubation [mg]) × 0.693/t1/2 [58, 59].

## C[C@H](O)CNC(=O)/C=C/c1ccccc1 [KM-568, S(+)-(2E)-N-(2-hydroxypropyl)-3-phenylprop-2-enamide]
Mice [1]; ip, 0.25 h
  ED50: 104 mg/kg
Mice [1]; po, 0.5 h
  ED50: 107 mg/kg
Mice [1]; i.p., 70 mg/kg, 0.25 h
  scMET Results (protected/tested animals): 2/8
Mice [1]; i.p., 100 mg/kg, 0.25 h
  scMET Results (protected/tested animals): 3/8
Mice [1]; i.p., 138 mg/kg, 0.25 h
  scMET Results (protected/tested animals): 5/8
Mice [1]; i.p., 170 mg/kg, 0.25 h
  scMET Results (protected/tested animals): 8/8
Mice [1]; p.o., 50 mg/kg, 0.5 h
  scMET Results (protected/tested animals): 1/8
Mice [1]; p.o., 100 mg/kg, 0.5 h
  scMET Results (protected/tested animals): 4/8
Mice [1]; p.o., 150 mg/kg, 0.5 h
  scMET Results (protected/tested animals): 4/8
Mice [1]; p.o., 200 mg/kg, 0.5 h
  scMET Results (protected/tested animals): 8/8
[2]; ip
  TD50 at 0.25 h: 148 mg/kg
[2]; po
  TD50 at 0.25 h: 344 mg/kg
Mice [3]; i.p., 100 mg/kg, 0.25 h
  TOX Results (animals displaying neurotoxicity/animals used): 0/8
Mice [3]; i.p., 125 mg/kg, 0.25 h
  TOX Results (animals displaying neurotoxicity/animals used): 0/8
Mice [3]; i.p., 138 mg/kg, 0.25 h
  TOX Results (animals displaying neurotoxicity/animals used): 2/8
Mice [3]; i.p., 150 mg/kg, 0.25 h
  TOX Results (animals displaying neurotoxicity/animals used): 5/8
Mice [3]; i.p., 170 mg/kg, 0.25 h
  TOX Results (animals displaying neurotoxicity/animals used): 7/8
Mice [3]; i.p., 200 mg/kg, 0.25 h
  TOX Results (animals displaying neurotoxicity/animals used): 8/8
Mice [3]; p.o., 200 mg/kg
  TOX Results (animals displaying neurotoxicity/animals used): 0/8
Mice [3]; p.o., 300 mg/kg
  TOX Results (animals displaying neurotoxicity/animals used): 3/8
Mice [3]; p.o., 350 mg/kg
  TOX Results (animals displaying neurotoxicity/animals used): 5/8
Mice [3]; p.o., 400 mg/kg
  TOX Results (animals displaying neurotoxicity/animals used): 5/8
Mice [3]; p.o., 500 mg/kg
  TOX Results (animals displaying neurotoxicity/animals used): 7/8
CF-1 mice; Mus musculus, ip, 95% confidence interval in parentheses
  ED50: 94.1 mg/kg
CF-1 mice; 70 mg/kg
  Picrotoxin Results (protected/tested animals): 1/8
CF-1 mice; 100 mg/kg
  Picrotoxin Results (protected/tested animals): 5/8
CF-1 mice; 130 mg/kg
  Picrotoxin Results (protected/tested animals): 7/8
C57/Bl6 mice
  Effect (% of Baseline), HPD counts: 73.9 % of Baseline
  Mean HPD Counts: 12.8
[4]
  Effect in AMPA receptor radioligand binding assay: No significant effects
[5]; after 60 min of incubation with microsomes
  compound remained unchanged: 72.37%
[5]; mouse liver microsomes
  metabolic stability qualification: moderate metabolically stable
[5]; pH 7.4, mouse liver microsomes, 20 μM, read-out: half-life time (t1/2)
  half-life at 20 μM: 2.14 h
[5]; pH 7.4, mouse liver microsomes, 20 μM, read-out: internal clearance (Clint)
  microsomal CLint at 20 μM: 13.5 µL/min/mg
